These are literature values, as cited in patent US7205335B2, “Preparation of cis-fused 3,3a,8,12b-tetrahydro-2H-dibenzo[3,4:6,7]cyclohepta[1,2-b]furan derivatives” (priority 2001, dated 2007).

For the data set the following is noted: dose of 300 mg/kg.

Molecules are shown by their SMILES.

Take `CNCC1CC2c3ccccc3Cc3ccccc3C2O1.O=C(O)C(=O)O` (racemic) [(±)-3,3a,8,12b-tetrahydro-N-methyl-2H-dibenzo[3,4:6,7]-cyclohepta-[1,2-b]furan-2-methanamine oxalic acid]: the “activity as an antidepressant” value was “inactive”.
